Laboratory results: patent US12611415B2, “Methods and compounds for treatment of metabolic disease” (Monash University, priority 2019, dated 2026)
“Also recorded” adds a separate entry of the source.

Columns and labels:
Type in all cases: in vivo, mouse
[1] = system: C57BL6/J mice fed high fat diet (HFD); assay: Celecoxib / Compound I-1 treatment study in HFD fed mice
Method: All animal work was conducted per Australian National Health and Medical Research Council (NHMRC) guidelines for the care and use of animals in research. Seven-week-old male Sprague Dawley rats or C57BL6/J mice were randomized and housed in groups of 2-5 in a temperature-controlled room under specific-pathogen free (SPF) or standard animal housing conditions with free access to food and water.
In the observational studies, mice or rats were fed semi-purified normal chow diet (control fat diet (CFD), 7% w/w fat and 16% total energy from fat, AIN93G, Specialty Feeds Pty Ltd, Australia) or high fat diet (HFD, 36% w/w fat and 59% total energy from fat, SF03-002, Specialty Feeds Pty Ltd, Australia) for a total duration of 6, 15, 23 or 32 weeks to evaluate changes to mesenteric lymph composition, structure and function over time during the progression of obesity. Mice or rats were fed with the same CFD or HFD for 6-10 weeks prior to collection of mesenteric lymph for in vitro incubation with lymphatic endothelial cells (LECs) and adipocytes, respectively.
A “prevention study” and a “treatment study” were also conducted. Both the prevention and treatment studies included mice fed the CFD or HFD for 15 or 23 weeks, as described above. In the prevention study, an additional group of mice was fed the HFD supplemented with celecoxib at a dose equivalent to ˜29 mg/kg/day (based on average food intake) for 15 weeks. In the treatment study, animals were fed the HFD for 15 weeks followed by a HFD supplemented with celecoxib (˜29 mg/kg/day) or Compound I-1 (˜9 mg/kg/day celecoxib equivalents) for 7-8 weeks. The celecoxib was purchased from MedChemExpress (NJ, USA), and Compound I-1 was synthesized consistent with the description in WO2016/023082.
Across all studies, body mass was measured once per week. Oral glucose tolerance tests (OGTTs) were conducted at 5, 14, 22 and/or 31 weeks after commencing feeding mice the HFD or CFD. To perform OGTTs, mice were routinely handled for 2 weeks prior to minimize the stress caused by handling during the experiment. On the day of the OGTT, mice were fasted for 4 h (7-11 am) but still had free access to water. Glucose (50 mg D-glucose in 200 μL water) was administered via oral gavage and a drop of blood was collected from the tail tip at fixed time points (0, 15, 30, 60, 90 and 120 mins). Blood glucose was measured using a One-touch glucometer (AccuCheck Performa, Roche, Switzerland). Plasma was separated from the remaining blood sample via centrifugation and reserved for measurement of plasma insulin concentrations via ELISA as described above.
At the end of all experiments, mice were euthanised via cervical dislocation and rats were euthanised via intracardiac injection of sodium pentobarbitone (100 mg). Organs and tissues, including the lymph nodes and adipose tissue depots, were carefully collected. The mass of adipose tissue depots was weighed to determine adiposity.
Mesenteric adipose tissue samples (for lymphatic capillary and mesenteric lymphatic vessel analysis) and small intestine samples (for villi and lacteal analysis) were collected with fine forceps. Whole mount adipose tissue was cut into ˜3 mm×3 mm×2 mm pieces and whole mount small intestine was cut into 1.5 cm segments. Immediately after collection, the tissue samples were fixed in 4% paraformaldehyde in PBS at 4° C. overnight. Fat associated lymph clusters (FALCs) were identified by intraperitoneal injection of FluoSphere Carboxylate-Modified Nanospheres, 100 nm, yellow-green (505/515, Invitrogen, CA, USA) and collected with fine forceps under a Zeiss Stemi 2000-CS surgical microscope (2.5× magnification) with a fluorescence adaptor (Nightsea, MA, USA). The fluorescent light was filtered through a cyan color light filter (Electron Microscopy Science, PA, USA) to visualize the nanospheres and thus the FALCs. FALCs were cleaned of adipose tissue after collected and placed whole in 4% paraformaldehyde in PBS at 4° C. overnight. […]

[2] = system: mice with chronic HFD-induced obesity; assay: Chronic HFD-induced obesity model, Compound I-1 versus CFD switch (FIG. 8)
Source text: Details regarding treatment times and controls are shown in panel (a). Panels b-e show lymph “leakage” into surrounding VAT due to HFD-induced remodelling of the mesenteric lymphatics, as measured by intramucosal injection of Evans blue dye and lymphangiography. (f-g) n=2 (CFD), 7 (HFD), 8 (Cele-pro (CP30)) and 5 (CFD switch).

[3] = system: mice with HFD-induced obesity; assay: Dose comparison study of Compound I-1 and celecoxib in HFD mice (FIG. 7)
Source text: Timelines and treatment groups are shown in panel a. (b-c) n=8 (CFD), 8 (CP90), 4, (CP30), 7 (CP10), 4 (Cele30), 5 (Cele 10), 6 (Cele3) and 4 (HFD). (c-d) n=7 (CFD), 7 (CP90), 5, (CP30), 7 (CP10), 5 (Cele30), 7 (Cele 10), 6 (Cele3) and 7 (HFD). (e-f) n=12 (CFD), 8 (CP90), 6 (CP30), 7 (CP10), 7 (Cele30), 8 (Cele 10), and 6 (Cele3), 8 (HFD). (g-h) n=10 (CFD), 8 (CP90), 6 (CP30), 7 (CP10), 6 (Cele30), 8 (Cele 10), and 7 (Cele3), 11 (HFD). (i-j) n=4 (CFD), 7 (CP 90), 7 (CP 10), 7 (Cele 10) and 6 (Cele 3). Statistical differences from one-way ANOVA, compared to CFD (baseline). *p<0.05, **p<0.01, ***p<0.005, ****p<0.001.

[4] = Compound I-1 ~9 mg/kg/day celecoxib equivalents, celecoxib at a 3.2-fold higher dose
[5] = HFD 15 weeks, then 7 weeks drug in HFD feed
[6] = HFD 15 weeks, then 7 weeks drug in HFD feed, Compound I-1 ~9 mg/kg/day celecoxib equivalents, celecoxib ~29 mg/kg/day
[7] = chronic HFD-induced obesity models, Cele-pro (CP30)
[8] = Compound I-1 at doses as low as 10 mg/kg (~3 mg/kg celecoxib), ~10-fold lower dose relative to celecoxib
[9] = various doses of Compound I-1 versus higher corresponding doses of celecoxib

Question: With CCCCCCCCCCCCCCCC(=O)OCC(COC(=O)CCCCCCCCCCCCCCC)OC(=O)CCCCCCCCC(=O)Oc1cc(C)cc(C)c1C(C)(C)CC(=O)NS(=O)(=O)c1ccc(-n2nc(C(F)(F)F)cc2-c2ccc(C)cc2)cc1 [Compound I-1] as the molecule, how does the “body weight gain induced by HFD (obesity)” value [1, 4] read?
Answer: significantly reduced; also recorded: reverses, more effectively

Question: And the “hyperinsulinemia in the fasted state and after glucose challenge (insulin resistance)” value [1, 4]?
Answer: significantly improved; also recorded: reverses, more effectively

Question: What about the oral glucose tolerance [1, 4] of the same molecule?
Answer: significantly improved

Question: What about the “SAT and VAT accumulation” value ([1]; Compound I-1 ~9 mg/kg/day celecoxib equivalents, compared with celecoxib at a 3.2-fold higher dose) of the same molecule?
Answer: more significantly reduced

Question: What about the “cholesterol levels in mesenteric lymph” value [1, 5] of the same molecule?
Answer: decreased

Question: What about the “lymph lipid profile (lipidomic analysis of mesenteric lymph) / lymph composition” value [1, 5] of the same molecule?
Answer: shift in the lymph lipid profile from a HFD-like toward a more CFD-like profile; also recorded: reverses, more effectively

Question: And the “total concentrations of triglyceride, phospholipid and glucose in mesenteric lymph” value [1, 5]?
Answer: trends toward a decrease

Question: And the “total free fatty acid (FFA) in mesenteric lymph” value [1, 5]?
Answer: significantly increased

Question: And the “immune cell numbers in mesenteric lymph nodes reversed to levels similar to CFD mice” value [1, 6]?
Answer: successfully reversed

Question: And the “immune cells in the mesenteric lymph fluid” value [1, 6]?
Answer: reduced

Question: What about the “lymph leakage into VAT” value [1, 6] of the same molecule?
Answer: reversed; also recorded: reverses, more effectively

Question: What about the “mesenteric lymph levels of PGE2” value [1, 6] of the same molecule?
Answer: reduced

Question: What about the “mesenteric lymph levels of VEGF-C” value [1, 6] of the same molecule?
Answer: below the limit of quantification; also recorded: reverses, more effectively

Question: What about the mesenteric lymphatic branching [1, 6] of the same molecule?
Answer: reversed; also recorded: reverses, more effectively

Question: What about the “mesenteric lymphatic dysfunction, visceral obesity, inflammation, glucose intolerance, and insulin resistance associated with obesity” value ([1]; compared with non-lymph-targeted celecoxib) of the same molecule?
Answer: reverse, more effectively

Question: And the “effects on mice on a high-fat diet relative to animals switched to a chow-fat diet” value ([2]; Cele-pro (CP30) versus CFD switch)?
Answer: comparable

Question: And the VAT inflammation [2, 7]?
Answer: reverses

Question: And the insulin resistance [2, 7]?
Answer: reverses

Question: And the lymphatic dysfunction [2, 7]?
Answer: reverses

Question: And the VAT lymph leakage [3, 8]?
Answer: superior; also recorded: reverses, more effectively

Question: What about the “restoration of glycaemic control” value [3, 8] of the same molecule?
Answer: superior

Question: What about the “reversal of VAT lymphangiogenesis (lymph vessel branching)” value [3, 8] of the same molecule?
Answer: superior; also recorded: reverses, more effectively

Question: What about the “reducing fasting plasma triglycerides” value ([3]; compared with a 3-fold higher dose of celecoxib) of the same molecule?
Answer: superior

Question: And the “HFD-induced obesity, weight” value [3, 9]?
Answer: reverses, more effectively

Question: What about the “changes to lymph composition” value [3, 9] of the same molecule?
Answer: reverses, more effectively

Question: And the insulin resistance [3, 9]?
Answer: reverses, more effectively

Question: What about the oral glucose tolerance [3, 9] of the same molecule?
Answer: reverses, more effectively
